Source: ChEMBL document CHEMBL1201861, “Genomics of Drug Sensitity in Cancer screening data, Wellcome Trust Sanger Institute”

Columns and labels:
Experiment in all cases: cells
Type in all cases: functional, cell-based, Homo sapiens
[1] = system: D-263MG; conditions: Homo sapiens, D-263MG
Description: SANGER: Inhibition of human D-263MG cell growth in a cell viability assay.

[2] = system: Calu-6; conditions: Homo sapiens, Calu-6;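 also: growth of human Calu-6 cells, read out by a cell viability assay, IC50 marking inhibition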
Description: SANGER: Inhibition of human Calu-6 cell growth in a cell viability assay.

[3] = system: VA-ES-BJ; conditions: Homo sapiens, VA-ES-BJ;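 also: growth inhibition of the VA-ES-BJ cell line, read out by a cell viability assay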
Description: SANGER: Inhibition of human VA-ES-BJ cell growth in a cell viability assay.

[4] = system: A704; conditions: Homo sapiens, A704;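 also: growth inhibition of human A704 cells, read out with a cell viability assay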
Description: SANGER: Inhibition of human A704 cell growth in a cell viability assay.

[5] = system: A253 cell line; conditions: Homo sapiens, A253;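 also: growth inhibition of A253 cells, read out with a cell viability assay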
Description: SANGER: Inhibition of human A253 cell growth in a cell viability assay.

[6] = system: MZ7-mel; conditions: Homo sapiens, MZ7-mel;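 also: growth inhibition of human MZ7-mel cells, measured by a cell viability assay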
Description: SANGER: Inhibition of human MZ7-mel cell growth in a cell viability assay.

[7] = system: SCC-15; conditions: Homo sapiens, SCC-15;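 also: growth inhibition of SCC-15 cells, read out with a cell viability assay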
Description: SANGER: Inhibition of human SCC-15 cell growth in a cell viability assay.

[8] = system: NCI-H1648; conditions: Homo sapiens, NCI-H1648;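 also: cell viability assay measuring inhibition of NCI-H1648 cell growth, from the Sanger screening data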
Description: SANGER: Inhibition of human NCI-H1648 cell growth in a cell viability assay.

[9] = system: ML-2; conditions: Homo sapiens, ML-2;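 also: growth inhibition of ML-2 cells, measured with a cell viability readout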
Description: SANGER: Inhibition of human ML-2 cell growth in a cell viability assay.

[10] = system: JVM-2; conditions: Homo sapiens, JVM-2;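 also: growth inhibition of JVM-2 cells determined by a cell viability assay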
Description: SANGER: Inhibition of human JVM-2 cell growth in a cell viability assay.

[11] = system: ES5; conditions: Homo sapiens, ES5;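 also: growth inhibition of human ES5 cells, read out by a cell viability assay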
Description: SANGER: Inhibition of human ES5 cell growth in a cell viability assay.

[12] = system: NCI-H69; conditions: Homo sapiens, NCI-H69;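 also: growth inhibition of the cell line, read out with a cell viability assay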
Description: SANGER: Inhibition of human NCI-H69 cell growth in a cell viability assay.

[13] = system: NCI-H23; conditions: Homo sapiens, NCI-H23;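 also: cell viability assay measuring growth inhibition of NCI-H23 cells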
Description: SANGER: Inhibition of human NCI-H23 cell growth in a cell viability assay.

[14] = system: Becker; conditions: Homo sapiens, Becker;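 also: growth inhibition of Becker cells, read out with a cell viability assay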
Description: SANGER: Inhibition of human Becker cell growth in a cell viability assay.

[15] = system: NCI-H1581; conditions: Homo sapiens, NCI-H1581;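 also: cell growth inhibition read out by a viability assay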
Description: SANGER: Inhibition of human NCI-H1581 cell growth in a cell viability assay.

[16] = system: LU-139; conditions: Homo sapiens, LU-139
Description: SANGER: Inhibition of human LU-139 cell growth in a cell viability assay.

[17] = system: LAMA-84; conditions: Homo sapiens, LAMA-84;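 also: growth inhibition of LAMA-84 cells, read out with a cell viability assay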
Description: SANGER: Inhibition of human LAMA-84 cell growth in a cell viability assay.

[18] = system: LS-1034; conditions: Homo sapiens, LS-1034
Description: SANGER: Inhibition of human LS-1034 cell growth in a cell viability assay.

[19] = system: HCE-T; conditions: Homo sapiens, HCE-T;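 also: cell viability assay read-out, reporting inhibition of HCE-T cell growth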
Description: SANGER: Inhibition of human HCE-T cell growth in a cell viability assay.

[20] = system: no-11; conditions: Homo sapiens;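 also: growth inhibition of human NO-11 cells, read out with a cell viability assay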
Description: SANGER: Inhibition of human no-11 cell growth in a cell viability assay.

[21] = system: HD-MY-Z; conditions: Homo sapiens, HD-MY-Z;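 also: growth inhibition of HD-MY-Z cells, read out with a cell viability assay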
Description: SANGER: Inhibition of human HD-MY-Z cell growth in a cell viability assay.

[22] = system: NCI-H1650; conditions: Homo sapiens, NCI-H1650;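 also: growth inhibition of human NCI-H1650 cells measured by a cell viability assay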
Description: SANGER: Inhibition of human NCI-H1650 cell growth in a cell viability assay.

[23] = system: 697; conditions: Homo sapiens
Description: SANGER: Inhibition of human 697 cell growth in a cell viability assay.

[24] = system: LB2518-MEL; conditions: Homo sapiens, LB2518-MEL;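 also: growth inhibition of human LB2518-MEL cells, measured with a cell viability assay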
Description: SANGER: Inhibition of human LB2518-MEL cell growth in a cell viability assay.

[25] = system: COLO-684; conditions: Homo sapiens, COLO-684
Description: SANGER: Inhibition of human COLO-684 cell growth in a cell viability assay.

[26] = system: KURAMOCHI; conditions: Homo sapiens, KURAMOCHI;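 also: growth inhibition of KURAMOCHI cells, read out with a cell viability assay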
Description: SANGER: Inhibition of human KURAMOCHI cell growth in a cell viability assay.

[27] = system: BV-173; conditions: Homo sapiens, BV-173
Description: SANGER: Inhibition of human BV-173 cell growth in a cell viability assay.

[28] = system: SW 954; conditions: Homo sapiens, SW 954;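 also: growth inhibition of SW954 human cancer cells, read out as cell viability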
Description: SANGER: Inhibition of human SW954 cell growth in a cell viability assay.

[29] = system: NCI-H446; conditions: Homo sapiens, NCI-H446;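 also: growth inhibition of NCI-H446 cells determined by a cell viability assay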
Description: SANGER: Inhibition of human NCI-H446 cell growth in a cell viability assay.

[30] = system: ES8; conditions: Homo sapiens, ES8;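 also: growth inhibition of human ES8 cells, read out with a cell viability assay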
Description: SANGER: Inhibition of human ES8 cell growth in a cell viability assay.

[31] = system: NB10; conditions: Homo sapiens, NB10;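 also: growth inhibition of NB10 cells, read out by a cell viability assay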
Description: SANGER: Inhibition of human NB10 cell growth in a cell viability assay.

[32] = system: KARPAS-299; conditions: Homo sapiens, KARPAS-299
Description: SANGER: Inhibition of human KARPAS-299 cell growth in a cell viability assay.

[33] = system: LXF-289 cell line; conditions: Homo sapiens, LXF-289
Description: SANGER: Inhibition of human LXF-289 cell growth in a cell viability assay.

[34] = system: ES3; conditions: Homo sapiens, ES3;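 also: growth inhibition of ES3 cells, read out with a cell viability assay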
Description: SANGER: Inhibition of human ES3 cell growth in a cell viability assay.

[35] = system: KP-N-YS; conditions: Homo sapiens, KP-N-YS;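 also: cell viability assay measuring inhibition of cell line growth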
Description: SANGER: Inhibition of human KP-N-YS cell growth in a cell viability assay.

[36] = system: MLMA; conditions: Homo sapiens, MLMA;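 also: growth inhibition of MLMA cells (human), determined through a cell viability readout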
Description: SANGER: Inhibition of human MLMA cell growth in a cell viability assay.

[37] = system: BB30-HNC; conditions: Homo sapiens, BB30-HNC;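 also: growth inhibition of the cultured cell line, read out by a cell viability assay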
Description: SANGER: Inhibition of human BB30-HNC cell growth in a cell viability assay.

[38] = system: MHH-NB-11; conditions: Homo sapiens, MHH-NB-11;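 also: growth inhibition of human MHH-NB-11 cells, read out by a cell viability assay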
Description: SANGER: Inhibition of human MHH-NB-11 cell growth in a cell viability assay.

[39] = system: OVCAR-4; conditions: Homo sapiens, OVCAR-4;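 also: growth inhibition of human OVCAR-4 cells, measured with a cell viability assay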
Description: SANGER: Inhibition of human OVCAR-4 cell growth in a cell viability assay.

[40] = system: KNS-81-FD; conditions: Homo sapiens, KNS-81-FD;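 also: growth inhibition of KNS-81-FD cells, read out with a cell viability assay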
Description: SANGER: Inhibition of human KNS-81-FD cell growth in a cell viability assay.

[41] = system: KMOE-2; conditions: Homo sapiens, KMOE-2;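 also: growth inhibition of human KMOE-2 cells, read out with a cell viability assay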
Description: SANGER: Inhibition of human KMOE-2 cell growth in a cell viability assay.

[42] = system: LS-123; conditions: Homo sapiens, LS-123
Description: SANGER: Inhibition of human LS-123 cell growth in a cell viability assay.

[43] = system: HH; conditions: Homo sapiens, HH
Description: SANGER: Inhibition of human HH cell growth in a cell viability assay.

[44] = system: OCI-AML2; conditions: Homo sapiens, OCI-AML2;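 also: growth inhibition of OCI-AML2 cells, read out with a cell viability assay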
Description: SANGER: Inhibition of human OCI-AML2 cell growth in a cell viability assay.

[45] = system: TE-1; conditions: Homo sapiens, TE-1;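 also: growth inhibition of the human TE-1 cell line, read out with a cell viability assay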
Description: SANGER: Inhibition of human TE-1 cell growth in a cell viability assay.

[46] = system: NCI-H82; conditions: Homo sapiens, NCI-H82;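 also: growth inhibition of NCI-H82 cells, measured with a cell viability readout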
Description: SANGER: Inhibition of human NCI-H82 cell growth in a cell viability assay.

[47] = system: NMC-G1; conditions: Homo sapiens, NMC-G1;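 also: growth inhibition of the NMC-G1 cell line, measured with a cell viability read-out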
Description: SANGER: Inhibition of human NMC-G1 cell growth in a cell viability assay.

[48] = system: EW-1; conditions: Homo sapiens, EW-1;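 also: growth inhibition of the human EW-1 cell line, read out by a cell viability assay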
Description: SANGER: Inhibition of human EW-1 cell growth in a cell viability assay.

Structure (SMILES): N#Cc1c(O)c2c(-c3ccc(-c4ccccc4O)cc3)csc2[nH]c1=O
- IC50 [1]: > 1020 nM
- IC50 [2]: > 1020 nM
- IC50 [3]: > 1020 nM
- IC50 [4]: > 1020 nM
- IC50 [5]: > 1020 nM
- IC50 [6]: > 1020 nM
- IC50 [7]: > 1020 nM
- IC50 [8]: > 1020 nM
- IC50 [9]: 43.4 nM
- IC50 [10]: > 1020 nM
- IC50 [11]: > 1020 nM
- IC50 [12]: > 1020 nM
- IC50 [13]: > 1020 nM
- IC50 [14]: > 1020 nM
- IC50 [15]: > 1020 nM
- IC50 [16]: > 1020 nM
- IC50 [17]: 308 nM
- IC50 [18]: > 1020 nM
- IC50 [19]: > 1020 nM
- IC50 [20]: > 1020 nM
- IC50 [21]: 148 nM
- IC50 [22]: > 1020 nM
- IC50 [23]: > 1020 nM
- IC50 [24]: > 1020 nM
- IC50 [25]: 303 nM
- IC50 [26]: > 1020 nM
- IC50 [27]: > 1020 nM
- IC50 [28]: > 1020 nM
- IC50 [29]: > 1020 nM
- IC50 [30]: > 1020 nM
- IC50 [31]: > 1020 nM
- IC50 [32]: 948 nM
- IC50 [33]: > 1020 nM
- IC50 [34]: > 1020 nM
- IC50 [35]: > 1020 nM
- IC50 [36]: 234 nM
- IC50 [37]: > 1020 nM
- IC50 [38]: 323 nM
- IC50 [39]: > 1020 nM
- IC50 [40]: > 1020 nM
- IC50 [41]: 397 nM
- IC50 [42]: > 1020 nM
- IC50 [43]: 458 nM
- IC50 [44]: 57.2 nM
- IC50 [45]: > 1020 nM
- IC50 [46]: > 1020 nM
- IC50 [47]: > 1020 nM
- IC50 [48]: > 1020 nM

Structure (SMILES): C=C(c1ccc(C(=O)O)cc1)c1cc2c(cc1C)C(C)(C)CCC2(C)C [BEXAROTENE]
- IC50 [1]: > 8000 nM
- IC50 [2]: > 8000 nM
- IC50 [3]: > 8000 nM
- IC50 [4]: > 8000 nM
- IC50 [5]: > 8000 nM
- IC50 [6]: > 8000 nM
- IC50 [7]: > 8000 nM
- IC50 [8]: > 8000 nM
- IC50 [9]: > 8000 nM
- IC50 [10]: > 8000 nM
- IC50 [11]: > 8000 nM
- IC50 [12]: > 8000 nM
- IC50 [13]: > 8000 nM
- IC50 [14]: > 8000 nM
- IC50 [15]: > 8000 nM
- IC50 [16]: > 8000 nM
- IC50 [17]: > 8000 nM
- IC50 [18]: > 8000 nM
- IC50 [19]: > 8000 nM
- IC50 [20]: > 8000 nM
- IC50 [21]: > 8000 nM
- IC50 [22]: > 8000 nM
- IC50 [23]: > 8000 nM
- IC50 [24]: > 8000 nM
- IC50 [25]: > 8000 nM
- IC50 [26]: > 8000 nM
- IC50 [27]: > 8000 nM
- IC50 [28]: > 8000 nM
- IC50 [29]: > 8000 nM
- IC50 [30]: > 8000 nM
- IC50 [31]: > 8000 nM
- IC50 [32]: > 8000 nM
- IC50 [33]: > 8000 nM
- IC50 [34]: > 8000 nM
- IC50 [36]: > 8000 nM
- IC50 [37]: > 8000 nM
- IC50 [38]: > 8000 nM
- IC50 [39]: > 8000 nM
- IC50 [40]: > 8000 nM
- IC50 [41]: > 8000 nM
- IC50 [42]: > 8000 nM
- IC50 [43]: > 8000 nM
- IC50 [44]: > 8000 nM
- IC50 [45]: > 8000 nM
- IC50 [46]: > 8000 nM
- IC50 [47]: > 8000 nM
- IC50 [48]: > 8000 nM

Structure (SMILES): Nc1ccn([C@@H]2O[C@H](CO)[C@@H](O)C2(F)F)c(=O)n1 [GEMCITABINE]
- IC50 [1]: > 1020 nM
- IC50 [2]: 1.73 nM
- IC50 [3]: 5.26 nM
- IC50 [4]: 53.8 nM
- IC50 [5]: 102 nM
- IC50 [6]: 42.7 nM
- IC50 [7]: 121 nM
- IC50 [8]: 511 nM
- IC50 [9]: 25.7 nM
- IC50 [10]: > 1020 nM
- IC50 [11]: > 1020 nM
- IC50 [12]: 459 nM
- IC50 [13]: 211 nM
- IC50 [14]: 267 nM
- IC50 [15]: > 1020 nM
- IC50 [16]: 14.6 nM
- IC50 [17]: 115 nM
- IC50 [18]: > 1020 nM
- IC50 [19]: 12.4 nM
- IC50 [20]: 737 nM
- IC50 [21]: 6.68 nM
- IC50 [22]: 25.4 nM
- IC50 [23]: 6.25 nM
- IC50 [24]: 64.5 nM
- IC50 [25]: 26.4 nM
- IC50 [26]: > 1020 nM
- IC50 [27]: 17.3 nM
- IC50 [28]: 23.7 nM
- IC50 [29]: 269 nM
- IC50 [30]: < 4 nM
- IC50 [31]: 24.4 nM
- IC50 [32]: 252 nM
- IC50 [33]: 3.31 nM
- IC50 [34]: 44.6 nM
- IC50 [36]: 272 nM
- IC50 [37]: < 4 nM
- IC50 [38]: 386 nM
- IC50 [39]: 625 nM
- IC50 [40]: > 1020 nM
- IC50 [41]: 155 nM
- IC50 [42]: 40.3 nM
- IC50 [43]: 35.1 nM
- IC50 [44]: < 4 nM
- IC50 [45]: > 1020 nM
- IC50 [46]: 373 nM
- IC50 [47]: 8.76 nM
- IC50 [48]: 2.22 nM
